In PMC4603696, “Discovery and characterization of novel small-molecule inhibitors targeting nicotinamide phosphoribosyltransferase” (Scientific Reports, 2015):
“And” between values parts separate entries of the source, which are not always exact repeats. Identical values can stand only once. Like-named read-outs stand apart in the source and are kept apart here.

Assays:
[1] = target: T1, NAMPT (Homo sapiens, UniProt P43490); assay: NAMPT activity assay by fluorescence of NMN derivative (HTS system), IC50 determination; type: biochemical; set-up: His-tag; made in house; host or cells: E. coli BL21-CodonPlus (DE3)-RIL; details: for IC50: recombinant human NAMPT, read-out: NAMPT IC50
T1 sequence (P43490 whole entry): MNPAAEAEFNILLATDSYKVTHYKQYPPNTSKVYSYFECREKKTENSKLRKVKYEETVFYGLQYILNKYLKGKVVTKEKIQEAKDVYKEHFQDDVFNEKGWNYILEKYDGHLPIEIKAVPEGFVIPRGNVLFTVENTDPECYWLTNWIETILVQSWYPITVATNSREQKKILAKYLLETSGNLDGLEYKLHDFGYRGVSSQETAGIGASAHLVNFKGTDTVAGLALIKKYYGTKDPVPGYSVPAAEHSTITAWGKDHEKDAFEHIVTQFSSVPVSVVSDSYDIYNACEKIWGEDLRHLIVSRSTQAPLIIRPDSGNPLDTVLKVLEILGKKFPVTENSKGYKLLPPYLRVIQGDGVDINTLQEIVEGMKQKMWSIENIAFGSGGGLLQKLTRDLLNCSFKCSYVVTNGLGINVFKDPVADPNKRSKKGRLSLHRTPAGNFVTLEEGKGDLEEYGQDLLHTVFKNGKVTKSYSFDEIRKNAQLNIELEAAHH

[2] = system: HepG2 cells; assay: Sulforhodamine B protein staining (SRB) assay in HepG2; type: cell-based, human; details: Homo sapiens
Experimental: (§1) Sulfor hod am ine B p rotei n st ai ning (SRB) assay
(§2) Cell pr oliferat ion was eva lua ted by sul for hod amine B pr ot ein st aini ng (SRB) assa y10-12.
(§3) Briefly, cel ls were se ede d int o 96-well pl ates, cul tur ed overni ght , and trea ted with correspond ing com poun ds for 72 h. Cells were the n fixe d with 10% trichl or oa cetic aci d and st ained with sul for hoda mine B (Sigm a). Sul for hoda mine B in the cells was di sso lved in 10 mmol/L Tris-HCl and was measured at 515 nm usi ng a multiw ell spect ropho tometer (VERSA max, Mol ecul ar Devi ces, Sunnyva le, CA). The inhi bi tion rat e on cell pr olif eratio n was cal culated for each well as (A515contr ol cells-A 515tr eated cells)/A515contr ol cells×100 % (A515:
(§4) OD va lue at 515 nm ). The averag e IC50 va lue s were de termine d by Logit method from at leas t t hr eei nde pe nde nt test s.

[3] = system: A549 cells; assay: SRB assay in A549; type: cell-based, human; details: Homo sapiens; A549, SRB, 10-fold concentration gradient; read-out: anti-proliferation IC50, initial screen
Experimental: as §1, §2, §3, §4

[4] = system: HCT116 cells; assay: SRB assay in HCT116; type: cell-based; details: Homo sapiens, HCT-116; HCT116, SRB, 10-fold concentration gradient; read-out: anti-proliferation IC50, initial screen
Experimental: as §1, §2, §3, §4

[5] = system: HepG2 cells; assay: Cell counting kit-8 (CCK-8) cell viability assay in HepG2; type: cell-based, human; details: HepG2, 48 hours treatment, read-out: CCK-8 assay in HepG2: IC50
Experimental: (§5) Cellc ount ing k it-8 (CCK-8) assa y
Cell vi ability was de termine d by ou r previ ous method9 usi ng the Cell Counting Kit-8 (CCK -8, Dojindo, Ja pa n). In hu man he pa tocellu lar carcinom a cell line HepG 2, cells were seede d in 96-well plate and starve d for ove r 12 h with se rum-free DMEM at 60~ 70% conf lue nc y, the n trea ted wit h com pounds or ve hicle for 24 h to 72 h accor ding to expe riment requi rement s. […]
(§6) 10 μl CCK-8 sol ution was adde d to the cul ture medium and inc ub ated at 37 °C for 1 h. Th e absor banc e at 450 nm (A450) was de tected by a pl ate reade r. Each e xperi ment w as carr ied out i n t riplic ate i n thr ee r eplic ate w ells.

[6] = system: Huh7-C cells; assay: CCK-8 assay in stem-like human hepatoma cell line Huh7-C; type: cell-based; details: Huh7-C, treated 60 h, read-out: CCK-8 assay in Huh7-C: IC50
Experimental: as §5
Cell vi ability was de termine d by ou r previ ous method9 usi ng the Cell Counting Kit-8 (CCK -8, […]
as §6

[7] = target: T1, NAMPT; assay: Cellular thermal shift assay (CETSA / […]) in HepG2 cell lysate; type: binding; set-up: endogenous in cells; host or cells: HepG2
[8] = target: T1, NAMPT; assay: Cellular thermal shift assay (CETSA / […]) in intact HepG2 cells; type: cell-based; set-up: endogenous in cells; host or cells: HepG2; details: 62 °C
[9] = HepG2, 72 h, HepG2, second test, 2-fold concentration gradient, 72 hours, read-out: SRB assay in HepG2: IC50
[10] = HepG2, HepG2, SRB, 10-fold concentration gradient, read-out: anti-proliferation IC50, initial screen

| SMILES | IC50 ([1]; mean ± s.e.) | further results |
| --- | --- | --- |
| O=S(=O)(c1ccc(NC(=S)NCc2cccnc2)cc1)N1CCN(Cc2cccc(Cl)c2)CC1 [MS29] | 0.0126 ± 0.0017 µM | – |
| O=S(=O)(c1ccc(NC(=S)NCc2cccnc2)cc1)N1CCN(Cc2ccc(Cl)cc2)CC1 [MS31] | 0.0137 ± 0.0016 µM | IC50 [2, 9]: 5810 ± 710 nM; IC50 [2, 10]: < 5000 nM; IC50 [3]: < 5000 nM; IC50 [4]: < 5000 nM |
| O=S(=O)(c1ccc(NC(=S)NCc2cccnc2)cc1)N1CCN(Cc2cccc(F)c2)CC1 [MS24] | 0.0089 ± 0.0005 µM | – |
| O=C(Nc1ccc(S(=O)(=O)N2CCCCC2)cc1)OCc1cccnc1 [MS17] | 0.0428 ± 0.004 µM | – |
| Nc1ccc(CN2CCN(S(=O)(=O)c3ccc(NC(=S)NCc4cccnc4)cc3)CC2)cc1 [MS38] | 0.0199 ± 0.0028 µM | – |
| O=C(NCc1ccc(S(=O)(=O)NCc2cc(F)cc3c2OCOC3)s1)c1ccc(Cl)cc1 [compound 4162] | 0.777 ± 0.084 µM | – |
| O=S(=O)(Nc1ccccc1)c1ccc(NC(=S)NCc2cccnc2)cc1 [MS3] | 0.022 ± 0.0046 µM | – |
| COc1ccc(CCNC(=O)c2cc3ccccc3s2)cc1OC [compound 2161] | 0.149 ± 0.021 µM | – |
| O=S(=O)(c1ccc(NC(=S)NCc2cccnc2)cc1)N1CCN(Cc2ccc(F)cc2)CC1 [MS22] | 0.012 ± 0.0015 µM | – |
| COc1cccc(/C=C2/N=C(c3ccc(NC(=O)c4cccs4)cc3)OC2=O)c1OC [compound 6443] | 0.352 ± 0.045 µM | – |
| O=S(=O)(c1ccc(NC(=S)NCc2cccnc2)cc1)N1CCN(Cc2ccccc2F)CC1 [MS25] | 0.0123 ± 0.002 µM | – |
| Cc1cccc(CN2CCN(S(=O)(=O)c3ccc(NC(=S)NCc4cccnc4)cc3)CC2)c1 [MS28] | 0.0168 ± 0.0015 µM | IC50 [2, 9]: > 10000 nM; IC50 [2, 10]: < 5000 nM; IC50 [3]: < 5000 nM; IC50 [4]: < 5000 nM |
| N=C(NCc1cccnc1)Nc1ccc(C(=O)N2CCCCC2)cc1 [MS19] | 14.5 ± 0.203 µM | IC50 ([1]; values given in μM): 14.5 ± 0.2 µM |
| O=C(/C=C/c1cccnc1)NCCCCC1CCN(C(=O)c2ccccc2)CC1 [FK866, reference compound] | – | IC50 [2, 9]: 50 nM |
| Cc1ccc2oc(=O)n(CCC(N)=NOC(=O)c3ccccc3)c2c1 [compound 7391] | 0.855 ± 0.17 µM | – |
| CCOC(=S)Nc1ccc(C(=O)N2CCCCC2)cc1 [MS20] | – | inhibition on NAMPT activity (in words) [1]: no NAMPT inhibition; IC50 ([1]; values given in μM): > 150 µM |
| CCOC(=O)N=C(NCc1cccnc1)Nc1ccc(S(=O)(=O)N2CCCCC2)cc1 [MS12] | – | IC50 ([1]; values given in μM): > 166 µM |
| O=S(=O)(c1ccc(NC(=S)NCc2cccnc2)cc1)N1CCN(Cc2ccc3ccccc3c2)CC1 [MS33] | 0.0295 ± 0.0008 µM | IC50 [2, 9]: 8940 ± 450 nM; IC50 [2, 10]: < 5000 nM; IC50 [3]: < 5000 nM; IC50 [4]: < 5000 nM |
| CCCCc1ccc(CN2CCN(S(=O)(=O)c3ccc(NC(=S)NCc4cccnc4)cc3)CC2)cc1 [MS36] | 0.0798 ± 0.0061 µM | – |
| O=S(=O)(c1ccc(NC(=S)NCc2cccnc2)cc1)N1CCN(Cc2ccc(OC(F)(F)F)cc2)CC1 [MS35] | 0.0369 ± 0.0046 µM | IC50 [2, 9]: 4830 ± 130 nM; IC50 [2, 10]: < 5000 nM; IC50 [3]: < 5000 nM; IC50 [4]: < 5000 nM |
| O=S(=O)(c1ccc(NC(=S)NCc2cccnc2)cc1)N1CCN(Cc2nc3ccccc3[nH]2)CC1 [MS39] | 0.014 ± 0.0003 µM | – |
| O=S(=O)(NCc1ccccc1)c1ccc(NC(=S)NCc2cccnc2)cc1 [MS10] | 0.0196 ± 0.0002 µM | – |
| O=S(=O)(c1ccc(NC(=S)NCc2cccnc2)cc1)N1CCN(Cc2c(F)cccc2F)CC1 [MS23] | 0.0099 ± 0.0012 µM | IC50 [2, 9]: > 10000 nM; IC50 [2, 10]: < 5000 nM; IC50 [3]: < 5000 nM; IC50 [4]: < 5000 nM |
| O=[N+]([O-])c1ccc(CN2CCN(S(=O)(=O)c3ccc(NC(=S)NCc4cccnc4)cc3)CC2)cc1 [MS37] | 0.0197 ± 0.0021 µM | IC50 [2, 9]: 4650 ± 1030 nM; IC50 [2, 10]: < 5000 nM; IC50 [3]: < 5000 nM; IC50 [4]: < 5000 nM |
| O=C(c1ccc(NC(=S)NCc2cccnc2)cc1)N1CCCCC1 [MS15] | 0.0422 ± 0.0031 µM | – |
| O=C1C[C@H](c2ccc(O)cc2)Oc2c1c(O)cc(O)c2[C@@H]1C(=O)c2c(O)cc(O)cc2O[C@H]1c1ccc(O)cc1 [compound 3909] | 0.504 ± 0.124 µM | – |

More lines, main results first:

| IC50 ([1]; mean ± s.e.) | SMILES | further results |
| --- | --- | --- |
| 0.577 ± 0.0387 µM | N#CN=C(NCc1cccnc1)Nc1ccc(S(=O)(=O)N2CCCC2)cc1 [MS21] | – |
| 0.0439 ± 0.0024 µM | O=S(=O)(c1ccc(NC(=S)NCc2cccnc2)cc1)N1CCCC1 [MS9, 1-(pyridin-3-ylmethyl)-3-(4-(pyrrolidin-1-ylsulfonyl)phenyl)thiourea] | – |
| 0.0964 ± 0.0123 µM | CN1CCN(S(=O)(=O)c2ccc(NC(=S)NCc3cccnc3)cc2)CC1 [MS4] | – |
| 0.0388 ± 0.0018 µM | O=S(=O)(c1ccc(NC(=S)NCc2cccnc2)cc1)N1CCN(Cc2cccs2)CC1 [MS43] | – |
| 0.0405 ± 0.0018 µM | CC(=O)N1CCN(S(=O)(=O)c2ccc(NC(=S)NCc3cccnc3)cc2)CC1 [MS5, 1-(4-((4-acetylpiperazin-1-yl)sulfonyl)phenyl)-3-(pyridin-3-ylmethyl)thiourea] | – |
| 0.0137 ± 0.0004 µM | O=S(=O)(c1ccc(NC(=S)NCc2cccnc2)cc1)N1CCN(Cc2ccncc2)CC1 [MS44] | – |
| 0.0098 ± 0.0009 µM | O=S(=O)(c1ccc(NC(=S)NCc2cccnc2)cc1)N1CCN(Cc2cccnc2)CC1 [MS45] | – |
| 0.0142 ± 0.0024 µM | O=S(=O)(c1ccc(NC(=S)NCc2cccnc2)cc1)N1CCN(C2CCCCC2)CC1 [MS8, 1-(4-((4-cyclohexylpiperazin-1-yl)sulfonyl)phenyl)-3-(pyridin-3-ylmethyl)thiourea] | – |
| 0.0487 ± 0.0045 µM | O=S(=O)(c1ccc(NC(=S)NCc2cccnc2)cc1)N1CCN(Cc2ccoc2)CC1 [MS40] | – |
| 0.0157 ± 0.0025 µM | O=S(=O)(c1ccc(NC(=S)NCc2cccnc2)cc1)N1CCN(Cc2ccccc2Cl)CC1 [MS30] | – |
| 0.0845 ± 0.0075 µM | O=S(=O)(c1ccc(NC(=S)NCc2cccnc2)cc1)N1CCNCC1 [MS2] | – |
| 0.0217 ± 0.0008 µM | O=S(=O)(c1ccc(NC(=S)NCc2cccnc2)cc1)N1CCOCC1 [MS11] | – |
| 0.0154 ± 0.0016 µM | Cc1ccc(N2CCN(S(=O)(=O)c3ccc(NC(=S)NCc4cccnc4)cc3)CC2)cc1 [MS46] | – |
| 0.0242 ± 0.0016 µM | O=S(=O)(c1ccc(NC(=S)NCc2cccnc2)cc1)N1CCN(Cc2ccc(Br)cc2)CC1 [MS32] | IC50 [2, 9]: 4860 ± 150 nM; IC50 [2, 10]: < 5000 nM; IC50 [3]: < 5000 nM; IC50 [4]: < 5000 nM |
| 0.0105 ± 0.002 µM | Cc1ccc(CN2CCN(S(=O)(=O)c3ccc(NC(=S)NCc4cccnc4)cc3)CC2)cc1 [MS26] | – |
| 0.0225 ± 0.0008 µM | O=S(=O)(c1ccc(NC(=S)NCc2cccnc2)cc1)N1CCN(Cc2ccsc2)CC1 [MS41] | – |
| 0.0191 ± 0.002 µM | O=S(=O)(c1ccc(NC(=S)NCc2cccnc2)cc1)N1CCN(Cc2ccco2)CC1 [MS42] | – |
| 0.0177 ± 0.0034 µM | O=S(=O)(c1ccc(NC(=S)NCc2cccnc2)cc1)N1CCN(c2ccccn2)CC1 [MS6, 1-(4-((4-(pyridin-2-yl)piperazin-1-yl)sulfonyl)phenyl)-3-(pyridin-3-ylmethyl)thiourea] | – |
| 0.00093 µM and 0.0009 µM | O=S(=O)(c1ccc(NC(=S)NCc2cccnc2)cc1)N1CCN(Cc2ccccc2)CC1 [MS7, 1-(4-((4-benzylpiperazin-1-yl)sulfonyl)phenyl)-3-(pyridin-3-ylmethyl)thiourea] | IC50 [5]: 1270 nM; IC50 ([5]; Homo sapiens, HepG2, 48 h): 1270 ± 158 nM; IC50 [2, 9]: > 10000 nM; IC50 [6]: 1060 ± 248 nM; CETSA melting curve shift of NAMPT in cell lysate ([7]; HepG2 cell lysate, 100 μM): large thermal shift; ITDRFCETSA for NAMPT in lysate, compared with MS1 ([7]; cell lysate, 62 °C): shifted to the left; ITDRFCETSA of NAMPT in cell lysate versus intact cells ([8]; lysate value relative to intact cells): no significant difference; ITDRFCETSA for NAMPT in intact cell, difference to MS1 (shifted to the right) ([8]; intact cell): no less than 10 fold |
| 0.0124 ± 0.0009 µM | Cc1ccccc1CN1CCN(S(=O)(=O)c2ccc(NC(=S)NCc3cccnc3)cc2)CC1 [MS27] | – |
| 0.765 ± 0.0748 µM | N=C(NCc1cccnc1)Nc1ccc(S(=O)(=O)N2CCCCC2)cc1 [MS18] | – |
